Reference: PMC11249646, “Small-Molecule Disruptors of the Interaction between Calcium- and Integrin-Binding Protein 1 and Integrin αIIbβ3 as Novel Antiplatelet Agents” (ACS Pharmacology & Translational Science, 2024)
pIC50: −log10 of the molar value. ≈ marks a conversion by molar mass, not a printed value. Read-outs that look alike come from different tables or passages of the source.

Legend:
[1] = biological target: T1, CIB1 and αIIb interaction (CIB1-GST : F-αIIb peptide) (Homo sapiens, UniProt Q99828); test: FP assay, 1536-well qHTS format (primary and confirmatory screen); format: binding; settings: for Confirm? (confirmatory screen): YES/NO; for IC50: read-out: IC50 [μM] (confirmatory screen)
T1 construct: made in house; host or cells: BL-21 plus RIL cells (E. coli)
T1 sequence (Q99828 1-191): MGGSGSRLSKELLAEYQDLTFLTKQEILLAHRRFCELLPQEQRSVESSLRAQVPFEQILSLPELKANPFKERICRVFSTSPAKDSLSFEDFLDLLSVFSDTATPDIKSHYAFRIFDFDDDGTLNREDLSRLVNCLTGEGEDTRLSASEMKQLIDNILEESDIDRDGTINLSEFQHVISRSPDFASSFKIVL

[2] = biological target: T2, GST-CIB1 : F-scrambled peptide (Homo sapiens, UniProt Q99828); test: FP scrambled-peptide counter screen, 1536-well format; format: binding; settings: for Curve Class (counterscreen): negative sign = inhibitory curve; for Efficacy (%) (counterscreen) / Curve Class (counterscreen) / IC50: counterscreen; for IC50: read-out: IC50 [μM] (counterscreen)
T2 construct: made in house; host or cells: BL-21 plus RIL cells (E. coli)
T2 sequence (Q99828 1-191): T1 sequence (Q99828 1-191)

[3] = In vitro ADME: solubility; format: physicochemical
[4] = In vitro ADME: PAMPA permeability
[5] = biological target: T3, CIB1 and αIIb interaction (GST-CIB1 : F-αIIb peptide) (Homo sapiens, UniProt Q99828); test: FP assay, 384-well format (screen); format: binding; settings: 384-well FP assay; for pIC50: Table 1, read-out: FP assay IC50
T3 construct: made in house; host or cells: BL-21 plus RIL cells (E. coli)
T3 sequence (Q99828 1-191): T1 sequence (Q99828 1-191)

washed human platelets = test: Human platelet aggregation assay (thrombin-induced); format: cell-based; settings: for inhibition at 10 µM: Homo sapiens, Platelet, single concentration of 10 μM (n = 3), thrombin; for Thrombin Assay 10 µM (%): platelet aggregation inhibition at 10 µM
Source text: A classical challenge in target-based drug discovery is moving from biochemical to cellular assay and the essential step of determining if the compounds of interest can perform in a cellular context. After characterization of the compounds in a series of biochemical assay formats, our next step was to assess their activity in a cellular environment. Our previous studies have shown that the interaction of the cytoplasmic domain of integrin αIIbβ3, a key regulator of platelet aggregation, with CIB1, is involved in downstream signaling in platelet activation and aggregation. We sought to determine whether our candidate compounds were inhibiting this interaction by evaluating them for platelet function in a human platelet aggregation assay. We prepared platelet-rich plasma (PRP) and washed the platelets as previously described[44] and then performed a platelet aggregation assay using the washed platelet suspensions (2 × 10^8/platelets/mL) followed by the recording of aggregation traces (see Materials and Methods Section). To induce platelet aggregation, 0.03 U/mL of thrombin, a physiological agonist of platelet activation, was used.
Figure 6 Effect of compounds on human platelet activation. Representative platelet aggregation tracings of washed human platelet suspensions pretreated for 30 min at 37 °C with vehicle (DMSO) or compounds at indicated concentrations followed by activation with thrombin (0.03–0.1 U/mL). Panel (A): NCGC00071855. Panel (B–D): NCGC00351170. Panel (E): CD62P exposure was in the presence of NCGC00351170. Data represents mean ± SEM, n = 4 individual experiments; ns = non significant *P < 0.05, ***P < 0.001, ****P < 0.0001.
Whole blood was drawn by venipuncture from healthy adult volunteers (of both gender and race) with informed consent. Approval was obtained from the institutional review boards of Thomas Jefferson University, according to the Declaration of Helsinki. Blood was collected in acidified citrate dextrose as an anticoagulant. Platelet-rich plasma (PRP) and washed platelets were prepared, as previously described.[44] Platelet aggregation was performed using washed platelet suspensions containing 2 × 10^8 platelets/mL using a Chrono-Log Lumi-Aggregometer (Chrono-Log), as described previously.[11] Aggregation traces were recorded by using Aggrolink software (Chrono-Log). Thrombin-induced P-selectin (CD62P) exposure was performed using Accuri C6 flowcytometer (BD Bioscience) as described previously.[11]
Figure S9: Effect of compounds on human platelet activation. Representative platelet aggregation
tracings of washed human platelet suspensions treated with vehicle (DMSO) or indicated
compounds at 10 μM for 30 minutes at 37 °C followed by activation with thrombin (0.03U/mL).

[6] = confirmatory screen, qHTS curve class, negative sign = inhibitory curve
[7] = qHTS primary screen hits, Table S2, negative = inhibition
[8] = qHTS primary screen hits, Table S2, negative sign = inhibitory curve, several classes where COUNT > 1
[9] = qHTS primary screen hits, Table S2, read-out: IC50
[10] = qHTS FP screen hits, Table S2, negative = inhibition
[11] = qHTS FP screen hits, Table S2, read-out: IC50

Structure (SMILES) | Efficacy (%) (confirmatory screen) ([1]; confirmatory screen) | Confirm? (confirmatory screen) ([1]; confirmatory screen) | Curve Class (confirmatory screen) [1, 6] | IC50 ([1]; confirmatory screen) [µM] | Efficacy (%) (counterscreen) [2] | Curve Class (counterscreen) ([2]; qHTS curve class) | IC50 [2] [µM] | solubility ([3]; read-out: Solubility) [µg/mL] | Papp [4] [×10⁻⁶ cm/s] | pIC50 [5] | Efficacy (%) [1, 7] [%] | pIC50 [1, 9] | inhibition at 10 µM (washed human platelets) [%] | Thrombin Assay 10 µM (%) (washed human platelets) | further results
O=C(O)C(F)(F)F.O=C(c1ccc(F)cc1)c1no[n+]([O-])c1C(=O)c1ccc(F)cc1 [NCGC00351162-01] | -69 | YES | -1.2 | 12.6 | -68 | -2.2 | 35.5 | > 49 | 6.01 |  |  |  |  |  | 
Cc1ccccc1C(=O)c1no[n+]([O-])c1C(=O)c1ccccc1C.O=C(O)C(F)(F)F [NCGC00351166-01] |  |  |  |  |  |  |  | 2 | < 1 | 5.37 | -19 | 4.50 | 77 | 77 | CONFIRMATORY SCREEN Confirm? ([1]; confirmatory screen, YES/NO call): YES; CONFIRMATORY SCREEN Curve Class [1, 6]: -1.4; CONFIRMATORY SCREEN Efficacy (%) ([1]; confirmatory screen, negative = inhibition): -39%; pIC50 ([1]; confirmatory screen, read-out: CONFIRMATORY SCREEN IC50): 4.90; Curve Class [1, 8]: -2.4; COUNTERSCREEN Efficacy (%) ([2]; scrambled-peptide counterscreen): -24%; COUNTERSCREEN Confirm? ([2]; scrambled-peptide counterscreen, YES/NO call): YES; COUNTERSCREEN Curve Class ([2]; scrambled-peptide counterscreen, qHTS curve class): 4
O=C(c1ccc(F)cc1)c1no[n+]([O-])c1C(=O)c1ccc(F)cc1 [NCGC00351162-02] |  |  |  |  |  |  |  | 34 (≈ 103 µM) |  | 5.12 | -58 | 4.58 | 97 | 97 | IC50 ([5]; log of IC50 in M (negative values), read-out: FP Assay LOG IC50 (converted)): 7.41 µM
O=C(c1cccs1)c1no[n+]([O-])c1C(=O)c1cccs1 [NCGC00071855-06] |  |  |  |  |  |  |  |  |  |  |  |  |  |  | solubility [3]: 14 µg/mL (≈ 45.7 µM); PAMPA [4]: 153 10-6 cm/s
O=C(c1cccc(OCc2ccccc2)c1)c1no[n+]([O-])c1C(=O)c1cccc(OCc2ccccc2)c1 [NCGC00351160-01] |  |  |  |  |  |  |  | 5 (≈ 9.87 µM) | 5.74 | 4.68 |  |  | 49 | 49 | 
COc1ccc(C(=O)c2no[n+]([O-])c2C(=O)c2ccc(OC)cc2)cc1.O=C(O)C(F)(F)F [NCGC00064079-03] | -37 | YES | -1.4 | 6.3 | -30 | -1.4 | 3.2 | 9 | 285 | 5.34 |  |  | 99 | 99 | Efficacy (%) [1, 10]: -27%; pIC50 [1, 11]: 5.05
O=C(c1cccs1)c1no[n+]([O-])c1CO [NCGC00354607-01] |  |  |  |  |  |  |  | 23 (≈ 102 µM) | 130 |  |  |  | 14 | 14 | 
O=C(c1ccccc1)c1no[n+]([O-])c1C(=O)c1ccccc1 [NCGC00351168-01] |  |  |  |  |  |  |  |  |  |  |  |  |  |  | solubility [3]: > 43 µg/mL; PAMPA [4]: < 1 10-6 cm/s
Cc1ccc(C(=O)c2no[n+]([O-])c2C(=O)c2ccc(C)cc2)cc1.O=C(O)C(F)(F)F [NCGC00351163-01] | -51 | YES | -1.4 | 5.6 | -36 | -1.2 | 4 | 12 |  | 5.18 |  |  | 96 | 96 | Efficacy (%) [1, 10]: -47%; Curve Class ([1]; qHTS FP screen hits, Table S2, one class per curve where COUNT > 1, negative sign = inhibitory curve): -1.2; pIC50 [1, 11]: 4.95
O=C(c1ccc(C(F)(F)F)cc1)c1no[n+]([O-])c1C(=O)c1ccc(C(F)(F)F)cc1 [NCGC00351164-01] |  |  |  |  |  |  |  | > 64 | 11 | 5.14 |  |  | 98 | 98 | 
O=C(O)C(F)(F)F.O=C(c1cccs1)c1no[n+]([O-])c1C(=O)c1cccs1 [NCGC00071855-05] |  |  |  |  |  |  |  | 18 | 187 |  | -48 | 4.94 |  |  | Curve Class [1, 8]: -1.2
O=C(c1ccccc1)c1no[n+]([O-])c1C(=O)c1ccccc1 [NCGC00351168-02] | -54 | YES | -2.2 | 31.6 | -34 | -1.4 | 25.1 | 26 (≈ 88.4 µM) | 2 | 5.11 | -49 | 4.60 | 97 | 97 | Curve Class [1, 8]: -1.2
